Article PMC5799266, “ComX-Induced Exoproteases Degrade ComX in Bacillus subtilis PS-216” (Frontiers in Microbiology, 2018)
Where no end group is shown, it is not given here.

How the values were obtained:
[1] = test system: exoproteases in B. subtilis PS-216 floating biofilm spent media; test: Proteolytic activity of harvested floating biofilm spent media with EDTA or subtilisin added after harvest (casein-gelatin plates); format: biochemical, Bacillus subtilis; details: EDTA 1 mM added to wt floating biofilm spent medium, 16 h at 37°C
Method: To prepare casein gelatin agar plates 1% (w/v) casein sodium salt from bovine milk (Sigma–Aldrich, United States) and 1% (w/v) gelatin from porcine skin (Sigma–Aldrich, United States) were thoroughly dissolved in 0.02 M NaOH and the pH was equilibrated to 7 ± 0.2 as described by [Montville (1983)]. […] Finally, 1.5% (w/v) of agar was added to the casein gelatin medium. The casein gelatin medium was autoclaved at 110°C. 40 ml of the medium was poured into Petri dishes with 9 cm diameter. Wells (6 mm diameter) were cut into the casein gelatin agar using an agar punch cutter.
Proteolytic activity was determined in B. subtilis spent medium at different time points. The spent medium below the biofilm was centrifuged for 5 min at 8000 g to remove remaining planktonic cells and sterilized through filters with 0.2 μm pores. Spent medium was diluted in 10 mM sodium acetate buffer with 5 mM calcium acetate (pH 7.5). If EDTA was added to experimental samples, spent medium was diluted in PBS buffer (10 mM sodium phosphate dibasic, 1 mM potassium phosphate monobasic, 137 mM NaCl, and 2.7 mM KCl pH 7). The diluted spent medium (100 μl) was dispensed into the wells punched into the casein gelatin agar. The plates were incubated for 16 h at 37°C when the proteolytic zones were measured. […]

[2] = test system: PaprE-gfp expression in B. subtilis PS-216 mutants; test: PaprE-gfp expression during formation of floating biofilm, complementation with ComX; format: cell-based, Bacillus subtilis
Method: To measure gene expression in floating biofilms (pellicles) a spore suspension 1% (v/v) was inoculated into the liquid MSgg medium. In some experiments the MSgg medium was supplemented with 20% (v/v) of the spent medium containing ComX, which was heterologously produced by E. coli ED367 ([Ansaldi et al., 2002]). The spent M9 medium of E. coli ED367 that was not induced by IPTG was used as a negative control.
Briefly, 200 μl aliquots of inoculated MSgg medium, sometimes supplemented with M9 spent medium were dispensed in a sterile 96-well black transparent bottom microtiter plate in four technical replicates. The lid was sealed with micropore tape and the space between wells was filled with sterile distilled water to minimize the effect of medium evaporation. The microtiter plate was incubated in the Cytation 3 imaging reader (BioTek, United States) at 37°C without shaking. Optical density at 650 nm and fluorescence intensity were measured in half hour intervals for up to 60 h. Fluorescence intensity of GFP (green fluorescent protein) was used to monitor PaprE-gfp expression with excitation at 480 nm and emission at 510 nm. The gain was set on 50. In a parallel experimental setup the same strains without the fluorescent marker were always cultured. To calculate the final expression the autofluorescence of unmarked strains was deducted from the fluorescence of the marked strains. Fluorescence intensity was normalized per OD650 of fluorescently labeled strains at each time point.

[3] = test system: exoprotease production of B. subtilis PS-216 ΔcomQ floating biofilms; test: Proteolytic activity in spent media of floating biofilms grown with ComX (casein-gelatin plates); format: cell-based, Bacillus subtilis; details: ΔcomQ mutant, 24 h floating biofilm in MSgg + 20% (v/v) ED367 M9 spent medium with ComX, 12-well plates, 37°C; casein-gelatin plate zones; three biological replicates
Method: (§1) To harvest pellicle spent media 1% (v/v) of B. subtilis spores were inoculated in 4 ml of MSgg medium ([Branda et al., 2001]), in some cases complemented with 20% (v/v) spent M9 minimal medium and incubated in sterile 12-well microtiter plates in static conditions at 37°C.
To prepare casein gelatin agar plates 1% (w/v) casein sodium salt from bovine milk (Sigma–Aldrich, United States) and 1% (w/v) gelatin from porcine skin (Sigma–Aldrich, United States) were thoroughly dissolved in 0.02 M NaOH and the pH was equilibrated to 7 ± 0.2 as described by [Montville (1983)]. Wherever, the proteolytic inhibition by ethylenediaminetetraacetic acid (EDTA) was tested, EDTA was added to the casein gelatin medium in 1 mM final concentration. Finally, 1.5% (w/v) of agar was added to the casein gelatin medium. The casein gelatin medium was autoclaved at 110°C. 40 ml of the medium was poured into Petri dishes with 9 cm diameter. Wells (6 mm diameter) were cut into the casein gelatin agar using an agar punch cutter.
Proteolytic activity was determined in B. subtilis spent medium at different time points. The spent medium below the biofilm was centrifuged for 5 min at 8000 g to remove remaining planktonic cells and sterilized through filters with 0.2 μm pores. […] The plates were incubated for 16 h at 37°C when the proteolytic zones were measured. […]

[4] = test system: B. subtilis PS-216 ΔcomQ floating biofilm; test: Floating biofilm morphology after addition of ComX; format: cell-based, Bacillus subtilis; details: ΔcomQ mutant at 24 h, MSgg + 20% (v/v) ED367 M9 spent medium with ComX
Method: as §1

[5] = test system: exoproteases in B. subtilis PS-216 floating biofilm spent media; test: ComX biological activity decay in floating biofilm spent media (biosensor BM1456, PsrfAA-yfp); format: in vitro ADME, Bacillus subtilis; details: for ComX biological activity decay: T0 vs 24 h at 37°C, three biological replicates
Method: (§2) The ComX biological activity was quantified in spent media of various B. subtilis strains harvested after 36 and 48 h of static growth, using biosensor strains: B. subtilis BM1456 and BM1400. […] The BM1400 strain only served to determine background fluorescence, since it carries no fluorescent marker. […] The BM1456 biosenor responds to ComX in the spent medium by inducing the PsrfAA-yfp reporter ([Oslizlo et al., 2014]). Since the induction of PsrfAA is proportional to the quantity of ComX ([Ansaldi et al., 2002]) we used this assay to estimate the quantity of biologically active ComX in the spent media of various pellicles.
(§3) Both biosensor strains were grown in 5 ml of CM medium supplemented with 1% (v/v) of filtered spent media of selected strains for 6 h at 37°C with shaking (200 rpm). After 6 h of incubation 200 μl aliquots were dispensed in a sterile 96-well black transparent bottom microtiter plate. The PsrfAA-yfp expression was quantified by YFP (yellow fluorescent protein) fluorescence intensity. YFP was excited at 510 nm and emissions were measured at 530 nm. The gain was set to 100. Each PsrfAA-yfp reading was normalized to OD650. The normalized autofluorescence background of BM1400 grown in the same experimental conditions was subtracted. Additionally, we subtracted the PsrfAA-yfp expression of cells exposed to ΔcomQ spent medium (lacks ComX), to account for ComX independent YFP expression.
ComX biological activity was determined in the spent media immediately after harvest (T0) and after a 24 h (T24) incubation at 37°C. We reasoned that if exoproteases in the spent medium degrade ComX the ComX biological activity at T0 will be greater than at T24. To calculate the ComX biological activity decay we used the following equation:
ComXbiologicalactivitydecay[%]= ComXbiologicalactivity(To)−ComXbiologicalactivity(T24)/ComXbiologicalactivity(To)*100
The same approach was used to determine ComX biological activity decay in the spent media supplemented with subtilisin (0.1 mg/ml) or metalloprotease inhibitor EDTA (1 mM) after harvesting or to estimate the effect of commercially available subtilisin on ComX heterologously produced in E. coli ED367.

[6] = test system: subtilisin; test: ComX biological activity decay in E. coli ED367 M9 spent medium with subtilisin (biosensor BM1456); format: in vitro ADME; details: E. coli ED367 M9 spent medium with heterologous ComX, subtilisin 0.1 mg/ml, 24 h at 37°C, vs subtilisin untreated control, three biological replicates
Method: as §2
as §3, with “Additionally, we subtracted the PsrfAA-yfp expression of cells exposed to ΔcomQ spent medium (lacks ComX), to account for ComX independent YFP expression.” left out
ComX biological activity was determined in the spent media immediately after harvest (T0) and after a 24 h (T24) incubation at 37°C. […]

Compound	effect on proteolytic activity of spent medium [1]	complementation of PaprE-gfp expression ([2]; degQ::tet mutant of PS-216, MSgg + 20% (v/v) ED367 M9 spent medium with ComX)	complementation of PaprE-gfp expression ([2]; ΔcomQ degQ::tet double mutant of PS-216, MSgg + 20% (v/v) ED367 M9 spent medium with ComX)	complementation of PaprE-gfp expression ([2]; ΔcomQ mutant of PS-216, floating biofilm in MSgg + 20% (v/v) M9 spent medium of IPTG-induced E. coli ED367 (heterologous ComX), 37°C, control non-induced spent medium, GFP fluorescence per OD650, three biological replicates)	complementation of spent media proteolytic activity [3]	floating biofilm morphology [4]	ComX biological activity decay, change with subtilisin ([5]; comP::cat or degQ::tet spent media + subtilisin 0.1 mg/ml added after harvest vs without, 24 h at 37°C, biosensor BM1456)	ComX biological activity decay ([5]; spent media of mutant strains (degQ::tet, comP::cat; low proteolytic activity) harvested at 36 and 48 h, biosensor BM1456)	ComX biological activity decay ([5]; spent media of wt PS-216 floating biofilms harvested at 36 and 48 h (MSgg), biosensor BM1456 PsrfAA-yfp fluorescence)	ComX biological activity decay, change with EDTA ([5]; wt spent medium + EDTA 1 mM added after harvest vs without, 24 h at 37°C, biosensor BM1456)	decay of the ComX biological activity, change with subtilisin [6]
O=C(O)CN(CCN(CC(=O)O)CC(=O)O)CC(=O)O [EDTA, ethylenediaminetetraacetic acid]	decreases	–	–	–	–	–	–	–	–	–	–
ComX: auto-inducing signaling peptide of B. subtilis ComQXPA system, modified by isoprenyl transferase ComQ; native in spent media or heterologously produced by E. coli ED367 (ADPITRQWGD; also: isoprenylated by ComQ, site not given here; UniProt P45453 46-55, looked up)	–	does not complement	does not complement	complementation was partial	complemented	restores the ΔcomQ mutant floating biofilm morphology to the wt morphology	increased	low	high	decreases	increases
